What is called Emax is the greatest response seen or fitted, relative to the assay's reference.

Read-outs that look alike come from different tables or passages of the source. Marks after values point to notes of the source that are not given here.

We go through one compound from PMC3572379, “Pharmacokinetic and pharmacodynamic effects of comedication of clopidogrel and dabigatran etexilate in healthy male volunteers” (European Journal of Clinical Pharmacology, 2012).

In one data set the test system is P-gp. Conditions: cited from earlier work.
The conditions of data set [1]: cited from earlier work.
Data set [2] in a line: Safety and tolerability assessment. The format is in vivo, healthy male subjects. As to conditions: one subject each; parts 2 and 3.
In data set [3] the test system is ADP-induced platelet aggregation. Kind of data set: ADP-induced inhibition of platelet aggregation (light transmission aggregometry in citrated PRP). In kind it is in vivo, healthy male subjects. Conditions: for Emax: Homo sapiens, Platelet. The method, then: The primary endpoints for PD were area under the effect curve of ADP-induced inhibition of platelet aggregation (IPA) at steady state of clopidogrel over one dosing interval from 0–24 h after dosing (AUECIPA,τ,ss); maximum percentage change compared with baseline in ADP-induced platelet aggregation at steady state of clopidogrel (Emax,IPA,ss); AUEC from 0 to 24 h (AUECIPA,0–24) after the loading dose of clopidogrel 600 mg; and the maximum percentage change compared with baseline in ADP-induced platelet aggregation from 0 to 24 h (Emax,IPA,0–24) after the loading dose of clopidogrel 600 mg.
The following PD parameters were also evaluated: • For clopidogrel, ADP-induced IPA was determined at predefined time points. • Capillary bleeding times were assessed (part 2 and part 3 of the study) before clopidogrel administration, 2, 4, and 12 h after clopidogrel administration, and following administration of dabigatran etexilate alone.
For platelet aggregation testing, ∼9 mL of blood was collected into a 10 mL monovette containing citrate to yield a final concentration of 10.6 mM. Platelet-rich plasma (PRP) was prepared by centrifugation and removed from the red-cell sediment. Approximately 0.5 mL platelet-poor plasma (PPP) was prepared from PRP by further centrifugation. Inhibition of platelet aggregation was performed by light transmission aggregometry in citrated PRP, using an 8-channel platelet aggregation profiler (PAP 8) aggregometer (möLab, Germany). The PRP (0% light transmission) and PPP (100% light transmission) served as reference. After baseline adjustment, ADP in a final concentration of 20 μM was added and aggregation recorded for 6 min. Maximum aggregation (%) within the first 6 min after addition of ADP was determined.

A short description of data set [4]: Plasma pharmacokinetics (HPLC-MS/MS) in open-label drug–drug interaction trial. As to conditions: male, human, in vivo, po. The method, then:
The treatment phase was divided into three separate parts, each with a different set of subjects. Part 1 (pilot study) was an open-label, multiple-dose (for dabigatran etexilate) and single-dose (for clopidogrel), fixed-sequence study. A single dose of clopidogrel 300 mg was given in addition to dabigatran etexilate 150 mg bid in steady state (Table 1). Part 2 (main study) was a randomized, open-label, multiple-dose, crossover study, with three periods of up to 5 days separated by washout periods of at least 14 days. The test treatment consisted of a clopidogrel 300 mg loading dose on day 1, followed by a 75 mg dose on day 2, then clopidogrel 75 mg qd in combination with dabigatran etexilate 150 mg bid on days 3–5 (Table 1). Part 3 (main study) was an open-label, multiple-dose (for dabigatran etexilate) and single-dose (for clopidogrel), fixed-sequence study. A single dose of clopidogrel 600 mg was given alone or in addition to dabigatran 150 mg bid at steady state (Table 1).
Although there are no reported interactions of food with dabigatran etexilate or clopidogrel, the morning medication was administered with about 240 mL of water following an overnight fast of at least 10 h, and no food was allowed until 4 h after drug administration. According to the twice-daily regimen dabigatran etexilate was similarly administered again 12 h later. Subjects were not allowed to lie down during the 2 h following drug administration, and water was limited for 1 h before and after drug administration. On dosing days a light non-standardized breakfast was given 1 h after morning drug administration. On profile days, no food was given until 4 h after administration. No concomitant therapy was allowed during the study, except for prophylactic thyroid hormone replacement and for symptomatic therapy of adverse events (AEs) in need of treatment.
For PK parameter evaluations, blood samples were taken for the determination of plasma concentrations of free, nonconjugated dabigatran, total dabigatran (after alkaline cleavage of conjugates), and the prodrug dabigatran etexilate, and of clopidogrel and SR26334.
Blood samples were taken before and at specified intervals up to 24 h after the morning clopidogrel dose, and before and up to 24 h after the morning and evening dabigatran etexilate dose. Timings of PK/PD sampling are shown in Supplementary Table 1.
Blood samples (∼2.7 mL for dabigatran and ∼4.0 mL for clopidogrel) were collected into tubes containing potassium ethylenediaminetetraacetic acid for PK analysis. Samples were centrifuged, and the resulting plasma samples were separated and stored at −70°C or below.
Plasma concentrations of free, nonconjugated dabigatran; total dabigatran (sum of free and conjugated dabigatran measured after alkaline cleavage of conjugates); the prodrug dabigatran etexilate; clopidogrel; and SR26334 were determined by validated high-performance liquid chromatography tandem mass spectrometry (HPLC-MS/MS) at AAI Pharma Deutschland (Neu-Ulm, Germany). The calibration curves for free and total dabigatran covered a range from 1.00 to 400 ng/mL plasma in undiluted samples. […] Maximum imprecision and inaccuracy for quality control samples at concentrations of 3, 30, and 320 ng/mL were 6.62 and +5.86%, respectively. For the prodrug, maximum imprecision and inaccuracy were 6.63 and +2.83%, respectively.
Calibration curves for clopidogrel and SR26334 covered concentration ranges of 0.01–10 ng/mL and 0.02–20 μg/mL, respectively, with an inaccuracy generally below 4% and imprecision below 9%. For blood coagulation parameters aPTT, ECT, and TT (PD analyses), ∼3 mL of blood were collected in sodium citrate monovettes at the time points indicated for PK analyses. The blood samples were centrifuged, frozen, and stored at −20°C or below.

[5] abbreviates: part 2, clopidogrel 75 mg qd + DE 150 mg bid vs clopidogrel 75 mg qd.
[6] abbreviates: part 3, clopidogrel 600 mg + DE 150 mg bid vs clopidogrel 600 mg.
Where [7] appears, read: part 3, reference: clopidogrel 600 mg single dose, n 12.

Consider `COC(=O)[C@H](c1ccccc1Cl)N1CCc2sccc2C1` [Clopidogrel, clopidogrel], for which the “substrate of P-gp” value in the data set with P-gp is listed as “substrate of P-gp”. Moreover, in data set [1], the “bleeding time, overall least square means” value was 1.96 times baseline. In addition, in data set [2], the “AEs considered related to the study drugs” value was “hematoma”. In addition, the maximum response (Emax) in data set [3] (part 1, after single dose clopidogrel 300 mg, data not shown, read-out: maximum inhibition of ADP-dependent platelet aggregation (Emax)) is approximately 50%; in data set [3] (part 2, reference: clopidogrel 75 mg qd, n 23, read-out: Emax, ss, mean (maximum percentage change in ADP-induced platelet aggregation)), 58.8%; in data set [3] (part 2, test: clopidogrel 75 mg qd + DE 150 mg bid, n 21, read-out: Emax, ss, mean (maximum percentage change in ADP-induced platelet aggregation)), 55.1%; in data set [3] (part 3, reference: clopidogrel 600 mg single dose, n 12, read-out: Emax, mean (maximum percentage change in ADP-induced platelet aggregation)), approximately 60%; in data set [3] (part 3, test: clopidogrel 600 mg + DE 150 mg bid, n 11, read-out: Emax, mean (maximum percentage change in ADP-induced platelet aggregation)), 66.8%. Moreover, the “AUECIPA, τ,ss difference test – reference” value in data set [3] (setting [5]) was −39.7 %·h. In data set [3] (setting [5]), the “AUECIPA, τ,ss difference test – reference, relative” value was −8.0%. Further, the “AUECIPA, τ,ss, mean” value in data set [3] (part 2, reference: clopidogrel 75 mg qd, n 21) turned out to be 496 %·h; in data set [3] (part 2, test: clopidogrel 75 mg qd + DE 150 mg bid, n 21) it was 456 %·h. The “AUEC0–24h difference test – reference” value in data set [3] (setting [6]) was −84.6 %·h. Besides, the “AUEC0–24h difference test – reference, relative” value in data set [3] (setting [6]) was −6.7%. In addition, the “AUEC0–24h of IPA, mean” value in data set [3] (setting [7]) is recorded as 1264 %·h; in data set [3] (part 3, reference: clopidogrel 600 mg single dose, n 12, listed as clopidogrel), 1,264 %·h; in data set [3] (part 3, test: clopidogrel 600 mg + DE 150 mg bid, n 11) it was 1179 %·h; in data set [3] (part 3, test: clopidogrel 600 mg + DE 150 mg bid, n 11, listed as clopidogrel), 1,179 %·h. Also, the “Emax, mean (maximum percentage change in ADP-induced platelet aggregation)” value in data set [3] (setting [7]) is reported as 66.0%. For the same compound, in data set [4] (75 mg), the “AUCτ,ss, gMean” value is 1400^b pg·h/mL. Also, the “Cmax,ss, gMean” value in data set [4] (75 mg) is 0.625 ng/mL. Also, the “AUC0-24, gMean” value in data set [4] (600 mg) was determined as 10.574 ng·h/mL. Besides, the “CL/Fss, gMean” value in data set [4] (600 mg) is given as 911000 mL/min. In addition, the “Cmax, gMean” value in data set [4] (600 mg) worked out at 4.013 ng/mL.
